Assay results: patent publication US20090163474A1, “FXR Agonists for the Treatment of Nonalcoholic Fatty Liver and Cholesterol Gallstone Diseases” (Wyeth, priority 2007, published 2009)

Legend:
[1] = tested on: C57BL/6 mice with preformed gallstones; experiment: Gallstone dissolution in mice with preformed gallstones; type: in vivo; conditions: Paigen diet 4 weeks, then 30 mg/kg orally once a day on chow diet for 4 weeks
Procedure: To study gallstone dissolution, gallbladders were harvested from mice treated as follows. C57BL/6 mice were fed a Paigen diet for 4 weeks to initiate gallstone formation. Subsequently these mice were administered vehicle or 30 mg/kg Compound A orally once a day and fed a standard chow diet for 4 weeks to study the effect of Compound A on preformed gallstones.

[2] = tested on: C57BL/6 mice fed a methionine/choline deficient (MCD) diet; experiment: MCD diet fed mice: serum, liver gene expression and liver histology; type: in vivo
Procedure: Male C57BL/6 mice were fed a standard chow diet or a methionine/choline deficient (MCD) diet (MCD diet; TD 90262, Harlan Teklad). MCD diet fed mice develop fibrosis and NAFLD including steatosis and NASH due to impaired mitochondrial β-oxidation and reduced hepatic triglyceride secretion.
Mice were administered vehicle or 30 mg/kg Compound A orally once a day for 4 weeks. Three hours after the final treatment, mice were euthanized, and blood and liver were collected for analyses.
FIGS. 11A and 11B show the expression levels of VCAM-1 and MCP-1, respectively. Real-time RT PCR analysis of liver RNA was performed. Expression levels were normalized to GAPDH, and the mean level of expression of each gene in vehicle treated mice fed a standard chow diet was defined as 1.0. 7 mice were tested in each group. Data are presented as the mean±SE.
FIGS. 13, 14, and 15 show representative liver sections from mice fed a standard chow diet, vehicle treated mice fed a MCD diet, and Compound A (30 mg/kg orally once a day) treated mice fed a MCD diet for 4 weeks.
Male C57BL/6 mice were fed a standard chow diet or a MCD diet and treated with either vehicle or 30 mg/kg Compound A orally once a day for 4 weeks. Three hours after the final treatment, mice were euthanized and liver expression of CYP2E1, a reactive oxygen species (ROS) generating microsomal enzyme, was analyzed.

Hep3B cells = experiment: FXR siRNA studies in Hep3B cells; type: cell-based, Human; conditions: Compound A 1 μM, 50 ng/ml IL-6
Procedure: FXR siRNA studies were performed in Hep3B cells. […] The cells were transfected with FXR siRNA or control siRNA, stimulated with 50 ng/ml IL-6, and treated with control (DMSO) or Compound A (1 μM). CRP concentrations in the conditional media were measured by ELISA. (*P<0.01, Control siRNA/DMSO vs. Control siRNA/Compound A).
The Hep3B cells were transfected with FXR siRNA or control siRNA, stimulated with 50 ng/ml IL-6, and treated with control (DMSO) or Compound A (1 μM). […] (*P<0.001, Control siRNA vs. FXR siRNA).

[3] = tested on: Wildtype mice challenged with CCl4; experiment: CCl4 induced acute liver injury and fibrosis in mice; type: in vivo; conditions: 30 mg/kg for 4 days, 30 μl/kg CCl4 on day 3, 24 hours
Procedure: Wildtype mice were treated with 30 mg/kg Compound A or vehicle for 4 days. On day 3, mice were challenged with 30 μl/kg of carbon tetrachloride (CCl4) to induce acute liver injury. After 24 hours, mice were euthanized and their livers were harvested for analysis.

[4] = tested on: wildtype (WT) mice fed a MCD diet; experiment: MCD diet, wildtype mice (WT vs FXRKO study); type: in vivo; conditions: 30 mg/kg orally once a day for 4 weeks
Procedure: (§1) Mice were fed a standard chow diet or a MCD diet and treated with either vehicle or 30 mg/kg Compound A orally once a day for 4 weeks.

[5] = tested on: FXR deficient (FXRKO) mice fed a MCD diet; experiment: MCD diet, FXR deficient mice (WT vs FXRKO study); type: in vivo; conditions: 30 mg/kg orally once a day for 4 weeks
Procedure: as §1

[6] = tested on: C57Bl/6 mice fed a MCD diet (preformed NASH); experiment: Preformed NASH in MCD diet fed mice; type: in vivo; conditions: MCD diet 2 weeks
Source text: C57Bl/6 mice were fed a MCD diet for 2 weeks to induce the development of NASH to study the effect of Compound A treatment on preformed NASH. These mice were then maintained on the MCD diet while being treated with vehicle or Compound A. Mice were euthanized 2 weeks (2 w), and 4 weeks (4 w) after the beginning of treatment with vehicle or Compound A for analysis. As controls, mice were fed a chow diet or fed a MCD diet for 2 weeks, and then euthanized for analysis.

[7] = 30 mg/kg orally once a day for 4 weeks, MCD diet
[8] = 30 mg/kg orally once a day for 4 weeks, MCD diet, RT PCR, p<0.001
[9] = 30 mg/kg orally once a day for 4 weeks, p<0.001
[10] = 30 mg/kg orally once a day, MCD diet for 4 weeks
[11] = then 2-week (P<0.001) and 4-week (P<0.01) treatment on MCD diet
[12] = then 2-week and 4-week treatment on MCD diet, P<0.01

With `CC(C)OC(=O)C1=CN(C(=O)c2ccc(F)c(F)c2)CC(C)(C)c2c1[nH]c1ccccc21` [Compound A, isopropyl 3-(3,4-difluorobenzoyl)-1,1-dimethyl-1,2,3,6-tetrahydroazepino[4,5-b]indole-5-carboxylate] the “Gallstone dissolution (gallstone incidence, mice with gallstones/mice)” value ([1]; vehicle 13/26) was 5/20, the “gallstone incidence in mice with preformed gallstones” value ([1]; vehicle 50%) was 25% and the “liver FXR gene expression level” value [2, 7] was “did not normalize”. The “liver FXR target gene expression (SHP, BSEP)” value [2, 7] was “normalized”, the “liver MCP-1 expression” value [2, 8] was “significantly inhibited” and the “liver VCAM-1 expression” value [2, 8] was “significantly inhibited”. For the same molecule, the “serum aspartate aminotransferase (AST) activity level” value ([2]; 30 mg/kg orally once a day for 4 weeks, MCD diet, mean±SE, vehicle 491±38.9 U/L, p<0.0001) was 268±77 U/L, the “serum mKC level vs vehicle” value ([2]; 30 mg/kg orally once a day for 4 weeks, MCD diet, p<0.05) was “reduced” and the “liver CYP2E1 expression levels” value ([2]; 30 mg/kg orally once a day for 4 weeks, chow or MCD diet (independent of MCD diet), p<0.001) was “significant inhibition”. The “liver MMP-9 expression level (MCD diet induction)” value [2, 9] was “inhibition of MCD diet induction”, the “liver MMP-14 expression level (MCD diet induction)” value [2, 9] was “inhibition of MCD diet induction” and the “liver TIMP-1 expression level (MCD diet induction)” value [2, 9] was “inhibition of MCD diet induction”. The “inflammatory cell infiltration and fibrosis in liver (Trichrome staining)” value [2, 10] was “more severe in the livers of vehicle treated compared to Compound A treated mice”, the “inflammatory cell infiltration and portal inflammation in liver (H&E staining)” value [2, 10] was “more severe in the livers of vehicle treated compared to Compound A treated mice” and the “liver function, inflammation and fibrosis (histological analyses of liver sections)” value [2, 10] was “preserved liver function, and reduced liver inflammation and fibrosis”. For the same molecule, the “neutral lipid accumulation in the liver (Oil Red O staining)” value [2, 10] was “no effect”, the “CRP inhibition at the mRNA level in cells transfected with FXR siRNA” value (Hep3B cells) was “suppressed” and the “inhibitory effect on CRP secretion in cells transfected with FXR siRNA” value (Hep3B cells; ELISA) was “FXR siRNA blocked Compound A's inhibitory effect”. For the same molecule, the “decrease of serum ALT levels vs vehicle” value ([3]; P<0.01) was 60%, the “decrease of serum AST levels vs vehicle” value ([3]; P<0.01) was 75% and the “decrease of liver TGF-β levels (TGF-β1 mRNA) vs vehicle” value ([3]; normalized to GAPDH, P<0.01) was 30%. The “decrease of liver a-SMA levels (mRNA) vs vehicle” value ([3]; normalized to GAPDH, P<0.01) was 40%, the “decrease of liver MMP-9 levels (mRNA) vs vehicle” value ([3]; normalized to GAPDH, P<0.04) was 75% and the “decrease of liver TIMP-1 levels (mRNA) vs vehicle” value ([3]; normalized to GAPDH, P<0.04) was 60%. For the same molecule, the “liver TIMP-1 gene expression level vs vehicle” value ([4]; P<0.001) was “reduction”, the “liver VCAM-1 gene expression level vs vehicle” value ([4]; P<0.001) was “decreasing” and the “liver Col1a2 expression level vs vehicle” value ([4]; P<0.01) was “reduction”. For the same molecule, the “serum ALT levels vs vehicle” value ([4]; P<0.01) was “decreased”, the “effect on liver VCAM-1 levels, FXR dependence” value [5] was “mediated by FXR” and the “hepatic protective effect (serum ALT), FXR dependence” value [5] was “mediated by FXR”. The “reduction of liver Col1a2, FXR dependence” value [5] was “mediated by FXR”, the “reduction of liver TIMP-1, FXR dependence” value [5] was “mediated by FXR” and the “liver Col1a2 gene expression level vs vehicle” value [6, 11] was “significantly lowered”. The “liver MMP-2 gene expression level vs vehicle” value [6, 11] was “significantly lowered”, the “liver TIMP-1 gene expression level vs vehicle” value [6, 11] was “significantly lowered” and the “liver MCP-1 gene expression level vs vehicle” value [6, 12] was “significantly lowered”. For the same molecule, the “liver VCAM-1 gene expression level vs vehicle” value [6, 12] was “significantly lowered”, the “serum level of ALT vs vehicle” value [6, 12] was “significantly reduced” and the “serum level of AST vs vehicle” value [6, 12] was “significantly reduced”.
